Measured values as given in patent US10017477B2, “Janus kinase inhibitors and uses thereof” (Dana-Farber Cancer Institute, Inc., priority 2014, dated 2018).
Values joined by “and” are separate entries in the source; they are usually repeats but may differ in a detail not shown here. Identical values can stand only once. Like-named read-outs stand apart in the source and are kept apart here.

How the values were obtained:
[1] = tested on: CMK (an Acute Megakaryoblastic Leukemia (AMKL) cell line); assay: CellTiter-Glo cell proliferation, CMK cancer cell line; type: cell-based
Protocol: (§1) CellTiter-Glo® Luminescent cell viability assay (Promega) was used to assess cell survival following treatment with the compounds described herein. Cells were seeded into 384 well plates with the EL406 Combination Washer Dispenser (BioTek Instruments, Inc.), and the compounds were injected into the cells culture media with the JANUS Automated Workstation (PerkinElmer Inc.). Cells were treated with a series diluted inhibitors (20 to 0.04 μM) for 72 hours at 37° C. Luminescent measurement is performed using the 2104 Envision® Multilabel Reader (PerkinElmer Inc.). The cell lines employed include Ba/F3 (a murine interleukin-3 dependent pro-B cell line), NKL (a Natural Killer Cell Lymphoma (NKCL) cell line), CMK (an Acute Megakaryoblastic Leukemia (AMKL) cell line).

[2] = Pharmacokinetics in mouse; type: in vivo; conditions: blood
[3] = tested on: NKL (a Natural Killer Cell Lymphoma (NKCL) cell line); assay: CellTiter-Glo cell proliferation, NKL cancer cell line; type: cell-based
Protocol: as §1

[4] = tested on: EGFR (T790M) dependent Ba/F3; assay: Proliferation of EGFR (T790M) dependent Ba/F3; type: cell-based, murine; conditions: Mus musculus, BaF3; at 200 nM
Protocol: as §1

[5] = tested on: IL-4 signaling (JAK3 dependent); assay: Profiling on primary immune cells, IL-4 signaling; type: cell-based
Aqueous solubility = type: physicochemical; conditions: aqueous medium; at 25° C.
Ba/F3 JAK3 = target: T1, Ba/F3 JAK3 (Homo sapiens, UniProt P52333); assay: CellTiter-Glo cell proliferation, Ba/F3 JAK3; type: cell-based, murine; conditions: 72 hours, read-out: Ba/F3 IC50 JAK3
T1 construct: candidate: TEL (ETV6) N-terminal oligomerisation domain
T1 sequence (P52333 1-1124): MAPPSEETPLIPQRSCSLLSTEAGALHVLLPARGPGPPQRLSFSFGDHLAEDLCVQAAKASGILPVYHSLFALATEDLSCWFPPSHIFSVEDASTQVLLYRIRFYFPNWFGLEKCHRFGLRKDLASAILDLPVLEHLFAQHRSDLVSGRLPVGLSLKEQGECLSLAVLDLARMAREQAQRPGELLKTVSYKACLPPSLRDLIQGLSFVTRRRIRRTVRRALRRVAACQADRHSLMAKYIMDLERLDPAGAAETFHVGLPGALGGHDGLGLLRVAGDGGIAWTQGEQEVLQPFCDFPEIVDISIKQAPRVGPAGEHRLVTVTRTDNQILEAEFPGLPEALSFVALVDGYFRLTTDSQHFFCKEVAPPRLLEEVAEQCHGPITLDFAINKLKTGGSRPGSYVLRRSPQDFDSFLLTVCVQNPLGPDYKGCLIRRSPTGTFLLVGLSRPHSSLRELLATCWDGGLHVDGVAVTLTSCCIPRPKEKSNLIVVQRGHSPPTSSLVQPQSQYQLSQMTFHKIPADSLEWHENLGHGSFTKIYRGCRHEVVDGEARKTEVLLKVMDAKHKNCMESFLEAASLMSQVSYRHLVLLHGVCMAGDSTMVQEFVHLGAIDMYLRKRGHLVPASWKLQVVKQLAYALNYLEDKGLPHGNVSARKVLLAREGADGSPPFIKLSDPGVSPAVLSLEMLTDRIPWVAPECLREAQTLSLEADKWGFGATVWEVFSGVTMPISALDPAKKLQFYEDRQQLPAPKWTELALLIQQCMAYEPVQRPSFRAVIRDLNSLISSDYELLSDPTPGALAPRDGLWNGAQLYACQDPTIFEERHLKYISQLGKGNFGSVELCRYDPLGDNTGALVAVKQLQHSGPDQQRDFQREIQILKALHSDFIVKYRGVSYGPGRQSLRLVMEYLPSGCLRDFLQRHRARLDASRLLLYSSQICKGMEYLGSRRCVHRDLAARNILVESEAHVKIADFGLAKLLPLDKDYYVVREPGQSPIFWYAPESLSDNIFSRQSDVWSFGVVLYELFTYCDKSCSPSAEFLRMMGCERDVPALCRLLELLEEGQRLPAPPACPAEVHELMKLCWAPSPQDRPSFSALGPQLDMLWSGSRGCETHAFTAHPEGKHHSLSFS

JAK3 = target: T2, JAK3 (Homo sapiens, UniProt P52333); assay: INVITROGEN Select Screening assay, enzymatic IC50, JAK3; type: biochemical
T2 construct: purchased INVITROGEN (Select Screening assay service)
T2 sequence (P52333 1-1124): T1 sequence (P52333 1-1124)

AURKA = target: T3, AURKA (Homo sapiens, UniProt O14965); assay: INVITROGEN Select Screening assay, enzymatic IC50, AURKA; type: biochemical
T3 construct: purchased INVITROGEN (Select Screening assay service)
T3 sequence (O14965 1-403): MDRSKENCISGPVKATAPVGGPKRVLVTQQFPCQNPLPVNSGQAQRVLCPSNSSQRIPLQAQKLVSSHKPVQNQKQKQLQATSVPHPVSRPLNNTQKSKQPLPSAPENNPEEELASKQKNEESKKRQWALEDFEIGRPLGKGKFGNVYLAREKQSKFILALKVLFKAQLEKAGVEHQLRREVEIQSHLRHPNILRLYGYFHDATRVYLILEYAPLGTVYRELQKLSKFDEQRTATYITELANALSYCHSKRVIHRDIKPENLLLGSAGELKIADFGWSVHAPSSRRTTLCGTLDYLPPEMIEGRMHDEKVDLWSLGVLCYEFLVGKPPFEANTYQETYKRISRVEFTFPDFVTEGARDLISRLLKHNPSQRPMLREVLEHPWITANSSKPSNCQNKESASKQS
Source text: (§2) The in vitro activity of the compounds described herein in inhibiting JAK3 and other kinases were obtained using an INVITROGEN Select Screening assay as known in the art.

AURKB = target: T4, AURKB (Homo sapiens, UniProt Q96GD4); assay: INVITROGEN Select Screening assay, enzymatic IC50, AURKB; type: biochemical
T4 construct: purchased INVITROGEN (Select Screening assay service)
T4 sequence (Q96GD4 whole entry): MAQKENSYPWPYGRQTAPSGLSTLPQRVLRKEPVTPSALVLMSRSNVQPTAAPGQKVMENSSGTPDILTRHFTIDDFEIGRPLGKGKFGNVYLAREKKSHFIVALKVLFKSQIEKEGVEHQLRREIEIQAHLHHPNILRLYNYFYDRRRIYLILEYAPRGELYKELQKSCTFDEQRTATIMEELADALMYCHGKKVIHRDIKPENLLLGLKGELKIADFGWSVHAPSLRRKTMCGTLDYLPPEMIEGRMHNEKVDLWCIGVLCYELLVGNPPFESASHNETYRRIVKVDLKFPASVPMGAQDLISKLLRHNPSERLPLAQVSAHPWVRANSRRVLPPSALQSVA
Source text: as §2

Ba/F3 JAK2 = target: T5, Ba/F3 JAK2 (Homo sapiens, UniProt O60674); assay: CellTiter-Glo cell proliferation, Ba/F3 JAK2; type: cell-based, murine; conditions: 72 hours; read-out: Ba/F3 IC50 JAK2
T5 construct: candidate: TEL (ETV6) N-terminal oligomerisation domain
T5 sequence (O60674 whole entry, change not shown, the tested form may be a part): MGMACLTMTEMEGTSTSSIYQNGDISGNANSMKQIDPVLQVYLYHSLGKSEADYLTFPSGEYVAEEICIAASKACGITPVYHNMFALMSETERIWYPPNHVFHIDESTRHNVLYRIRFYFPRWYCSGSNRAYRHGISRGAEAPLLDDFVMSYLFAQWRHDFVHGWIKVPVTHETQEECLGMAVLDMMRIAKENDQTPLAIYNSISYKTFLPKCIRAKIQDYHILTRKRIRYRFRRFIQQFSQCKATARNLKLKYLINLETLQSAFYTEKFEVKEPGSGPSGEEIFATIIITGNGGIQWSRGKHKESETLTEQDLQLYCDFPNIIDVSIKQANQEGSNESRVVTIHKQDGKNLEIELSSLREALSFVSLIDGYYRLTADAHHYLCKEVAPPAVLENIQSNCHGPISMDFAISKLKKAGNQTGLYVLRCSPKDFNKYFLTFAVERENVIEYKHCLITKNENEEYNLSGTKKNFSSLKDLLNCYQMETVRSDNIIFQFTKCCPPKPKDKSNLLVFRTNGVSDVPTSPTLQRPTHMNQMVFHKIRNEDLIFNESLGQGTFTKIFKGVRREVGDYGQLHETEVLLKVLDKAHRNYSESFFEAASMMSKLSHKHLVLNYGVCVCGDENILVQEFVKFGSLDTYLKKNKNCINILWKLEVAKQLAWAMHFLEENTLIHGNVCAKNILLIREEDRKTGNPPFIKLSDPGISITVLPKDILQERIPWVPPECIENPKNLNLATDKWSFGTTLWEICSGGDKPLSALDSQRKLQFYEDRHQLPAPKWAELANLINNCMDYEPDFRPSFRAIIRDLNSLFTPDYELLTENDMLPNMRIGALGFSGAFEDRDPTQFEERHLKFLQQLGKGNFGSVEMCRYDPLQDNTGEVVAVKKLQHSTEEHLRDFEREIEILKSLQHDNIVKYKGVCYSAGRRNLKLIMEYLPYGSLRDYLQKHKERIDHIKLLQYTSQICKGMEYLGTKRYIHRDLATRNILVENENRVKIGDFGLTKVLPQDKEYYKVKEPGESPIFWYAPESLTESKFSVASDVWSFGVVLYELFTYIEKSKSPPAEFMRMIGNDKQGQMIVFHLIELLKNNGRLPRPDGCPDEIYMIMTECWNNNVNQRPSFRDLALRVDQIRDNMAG

Ba/F3 TYK2 = target: T6, Ba/F3 TYK2 (Homo sapiens, UniProt P29597); assay: CellTiter-Glo cell proliferation, Ba/F3 TYK2; type: cell-based, murine; conditions: 72 hours; read-out: Ba/F3 IC50 TYK2
T6 construct: The likeliest candidate is TEL (ETV6) N-terminal oligomerisation domain fused to the TYK2 kinase domain; BCR, another partner, or no partner are also possible
T6 sequence (P29597 whole entry, change not shown, the tested form may be a part): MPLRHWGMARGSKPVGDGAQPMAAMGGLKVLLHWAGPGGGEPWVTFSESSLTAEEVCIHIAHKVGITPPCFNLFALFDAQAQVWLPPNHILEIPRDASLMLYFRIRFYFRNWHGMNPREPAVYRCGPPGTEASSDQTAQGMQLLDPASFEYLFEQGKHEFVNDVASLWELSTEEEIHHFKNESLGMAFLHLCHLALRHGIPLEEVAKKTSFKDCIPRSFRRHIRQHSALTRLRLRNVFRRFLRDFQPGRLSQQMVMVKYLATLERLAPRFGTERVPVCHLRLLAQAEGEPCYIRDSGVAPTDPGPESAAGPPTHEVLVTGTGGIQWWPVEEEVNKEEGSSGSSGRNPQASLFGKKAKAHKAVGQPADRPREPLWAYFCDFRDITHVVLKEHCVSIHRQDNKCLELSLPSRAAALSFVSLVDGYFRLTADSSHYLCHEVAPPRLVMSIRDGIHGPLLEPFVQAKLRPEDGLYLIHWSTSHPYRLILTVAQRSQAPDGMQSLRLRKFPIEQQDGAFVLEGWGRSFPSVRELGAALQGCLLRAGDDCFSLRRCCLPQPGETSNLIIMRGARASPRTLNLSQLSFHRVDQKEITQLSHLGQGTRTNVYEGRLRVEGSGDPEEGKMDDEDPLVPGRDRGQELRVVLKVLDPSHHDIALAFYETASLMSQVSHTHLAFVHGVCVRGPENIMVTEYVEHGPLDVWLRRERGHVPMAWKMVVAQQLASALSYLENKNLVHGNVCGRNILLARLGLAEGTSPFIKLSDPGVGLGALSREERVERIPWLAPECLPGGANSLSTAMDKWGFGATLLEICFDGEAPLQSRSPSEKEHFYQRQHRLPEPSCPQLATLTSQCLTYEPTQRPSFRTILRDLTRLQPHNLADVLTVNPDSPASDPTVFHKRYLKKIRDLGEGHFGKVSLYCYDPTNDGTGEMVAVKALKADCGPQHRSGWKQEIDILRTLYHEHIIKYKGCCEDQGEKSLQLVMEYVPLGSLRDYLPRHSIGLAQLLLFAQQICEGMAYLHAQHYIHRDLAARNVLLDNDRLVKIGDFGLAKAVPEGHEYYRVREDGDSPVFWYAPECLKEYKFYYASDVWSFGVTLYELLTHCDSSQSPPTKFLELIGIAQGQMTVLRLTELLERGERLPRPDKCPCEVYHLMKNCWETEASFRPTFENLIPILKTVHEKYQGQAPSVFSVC

Ba/F3 JAK1 = target: T7, Ba/F3 JAK1 (Homo sapiens, UniProt P23458); assay: CellTiter-Glo cell proliferation, Ba/F3 JAK1; type: cell-based, murine; conditions: 72 hours; read-out: Ba/F3 IC50 JAK1
T7 construct: candidate: TEL (ETV6) N-terminal oligomerisation domain
T7 sequence (P23458 whole entry, change not shown, the tested form may be a part): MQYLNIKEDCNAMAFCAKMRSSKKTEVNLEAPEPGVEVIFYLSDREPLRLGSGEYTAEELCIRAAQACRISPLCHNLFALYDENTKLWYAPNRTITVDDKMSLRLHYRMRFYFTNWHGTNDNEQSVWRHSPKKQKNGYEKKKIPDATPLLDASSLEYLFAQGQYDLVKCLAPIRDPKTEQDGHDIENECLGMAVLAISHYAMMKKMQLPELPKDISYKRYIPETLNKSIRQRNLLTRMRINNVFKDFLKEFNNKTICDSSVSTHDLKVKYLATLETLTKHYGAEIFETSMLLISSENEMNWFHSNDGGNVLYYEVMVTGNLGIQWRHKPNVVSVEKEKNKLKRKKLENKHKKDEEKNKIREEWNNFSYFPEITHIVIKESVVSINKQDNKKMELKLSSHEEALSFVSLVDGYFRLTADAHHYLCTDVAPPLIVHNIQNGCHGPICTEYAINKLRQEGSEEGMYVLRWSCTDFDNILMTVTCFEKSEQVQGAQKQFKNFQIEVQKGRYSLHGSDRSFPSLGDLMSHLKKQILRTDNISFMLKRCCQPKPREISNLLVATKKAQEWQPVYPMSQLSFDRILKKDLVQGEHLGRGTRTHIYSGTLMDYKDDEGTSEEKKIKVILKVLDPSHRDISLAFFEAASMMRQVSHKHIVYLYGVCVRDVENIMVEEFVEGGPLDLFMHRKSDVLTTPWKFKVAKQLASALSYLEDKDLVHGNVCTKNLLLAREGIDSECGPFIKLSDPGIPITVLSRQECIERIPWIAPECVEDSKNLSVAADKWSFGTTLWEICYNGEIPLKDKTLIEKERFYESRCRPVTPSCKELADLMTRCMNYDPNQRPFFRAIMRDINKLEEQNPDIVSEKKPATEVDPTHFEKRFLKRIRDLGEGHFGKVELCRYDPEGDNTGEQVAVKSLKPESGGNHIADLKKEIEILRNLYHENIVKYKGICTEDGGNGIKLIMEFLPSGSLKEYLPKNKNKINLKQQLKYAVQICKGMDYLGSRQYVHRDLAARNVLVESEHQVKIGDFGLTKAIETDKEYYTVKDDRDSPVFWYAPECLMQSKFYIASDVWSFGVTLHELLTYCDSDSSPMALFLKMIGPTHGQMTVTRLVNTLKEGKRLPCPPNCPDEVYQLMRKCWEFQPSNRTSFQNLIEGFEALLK

Ba/F3 ABL = target: T8, Ba/F3 ABL (Homo sapiens, UniProt P00519); assay: CellTiter-Glo cell proliferation, Ba/F3 ABL; type: cell-based, murine; conditions: 72 hours; read-out: Ba/F3 IC50 ABL
T8 construct: candidates: BCR or TEL (ETV6)
T8 sequence (P00519 whole entry, change not shown): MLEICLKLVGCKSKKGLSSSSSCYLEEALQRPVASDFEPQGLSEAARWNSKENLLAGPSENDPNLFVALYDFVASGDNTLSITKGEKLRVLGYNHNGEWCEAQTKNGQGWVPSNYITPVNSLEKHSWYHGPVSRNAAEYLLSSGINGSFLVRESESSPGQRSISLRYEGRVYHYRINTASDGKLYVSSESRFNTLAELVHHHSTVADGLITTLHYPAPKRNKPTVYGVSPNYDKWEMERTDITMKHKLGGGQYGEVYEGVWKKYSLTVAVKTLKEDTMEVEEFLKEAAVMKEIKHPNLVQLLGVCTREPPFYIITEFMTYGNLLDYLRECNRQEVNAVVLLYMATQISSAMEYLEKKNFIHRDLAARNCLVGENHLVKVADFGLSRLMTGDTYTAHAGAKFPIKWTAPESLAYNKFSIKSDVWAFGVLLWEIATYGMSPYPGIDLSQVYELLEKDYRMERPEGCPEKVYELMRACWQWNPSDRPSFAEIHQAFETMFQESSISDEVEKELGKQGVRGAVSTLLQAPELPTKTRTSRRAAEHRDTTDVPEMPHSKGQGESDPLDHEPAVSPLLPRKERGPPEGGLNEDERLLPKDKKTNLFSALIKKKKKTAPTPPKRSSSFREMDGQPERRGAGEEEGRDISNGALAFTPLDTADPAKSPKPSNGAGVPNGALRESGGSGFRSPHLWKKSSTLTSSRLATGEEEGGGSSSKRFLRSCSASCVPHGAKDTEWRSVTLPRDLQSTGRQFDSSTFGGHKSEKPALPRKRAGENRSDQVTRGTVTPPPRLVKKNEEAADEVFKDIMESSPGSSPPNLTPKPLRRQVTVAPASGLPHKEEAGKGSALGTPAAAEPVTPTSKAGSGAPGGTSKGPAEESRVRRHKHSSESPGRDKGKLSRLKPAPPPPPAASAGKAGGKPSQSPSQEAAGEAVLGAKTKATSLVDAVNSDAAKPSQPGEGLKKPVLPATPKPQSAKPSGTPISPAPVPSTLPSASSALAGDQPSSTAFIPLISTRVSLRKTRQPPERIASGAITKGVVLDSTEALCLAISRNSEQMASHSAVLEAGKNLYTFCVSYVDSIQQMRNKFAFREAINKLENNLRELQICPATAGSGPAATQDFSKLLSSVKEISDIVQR
Protocol: as §1

Compound | GI50 (Ba/F3 JAK3) | IC50 (JAK3) [nM] | GI50 (Ba/F3 JAK2) [nM] | GI50 (Ba/F3 TYK2) [nM] | GI50 (Ba/F3 JAK1) [nM] | GI50 (Ba/F3 ABL) [nM] | further results
C=CC(=O)Nc1cccc(CNc2nc(Nc3ccc(N4CCN(C)CC4)cc3OC)ncc2Cl)c1 [Compound 2, N-(3-(((5-chloro-2-((2-methoxy-4-(4-methylpiperazin-1-yl)phenyl)amino)pyrimidin-4-yl)amino)methyl)phenyl)acrylamide] | 60.4 nM and 62.6 nM | – | – | – | – | – | IC50 ([1]; 72 hours, read-out: Cancer cell lines IC50 CMK): 8280 nM; anti-proliferative potency on AMKL cell line (in words) ([1]; cell line with activating mutation A572V of JAK3): doesn't shown anti-proliferative potency; Cmax ([2]; PO dose at 10 mg/kg): 294 ng/mL; Tmax ([2]; PO dose at 10 mg/kg): 2 h; bioavailability ([2]; PO dose at 10 mg/kg): 23%; Vd ([2]; intravenous dose at 1 mg/kg, read-out: Vdss): 1.2 L/kg; IC50 ([3]; 72 hours, read-out: Cancer cell lines IC50 NKL): 19.7 nM; EC50 ([3]; IL-2 dependent NKL cell line, read-out: anti-proliferative potency EC50, NKL): 20 nM; inhibition at 0.2 µM [4]: > 90%; effect on IL-4 signaling [5]: blocks IL-4 signaling; solubility (Aqueous solubility): > 250 µM; GI50 (Ba/F3 JAK3; listed as compound 2): 60 nM
C=CC(=O)Nc1ccc(CNc2nc(Nc3ccc(N4CCN(C)CC4)cc3OC)ncc2Br)cc1 [Compound 3] | – | 33.2 | – | – | – | – | –
C=CC(=O)Nc1ccc(CNc2nc(Nc3ccc(N4CCN(C)CC4)cc3OC)ncc2C(F)(F)F)cc1 [Compound 4] | – | 57.2 | – | – | – | – | –
CCC(=O)Nc1ccc(CNc2nc(Nc3ccc(N4CCN(C)CC4)cc3OC)ncc2Cl)cc1 [Compound 5] | – | 5420 | – | – | – | – | –
C=CC(=O)Nc1ccc(CNc2nc(Nc3ccc(N4CCOCC4)cc3)ncc2Cl)cc1 [Compound 13] | – | – | – | – | – | – | IC50 (AURKA): 173 nM; IC50 (AURKB): 835 nM
C=CC(=O)Nc1ccc(CNc2nc(Nc3ccc(N4CCOCC4)c(F)c3)ncc2Cl)cc1 [Compound 14] | 30.5 nM | 3.5 | 1870 | 607 | 1300 | 2520 | IC50 (AURKA): 279 nM; IC50 (AURKB): 1310 nM
C=CC(=O)Nc1ccc(CNc2nc(Nc3ccc(N4CCN(C)CC4)cc3)ncc2Cl)cc1 [Compound 15] | 10.6 nM | 0.689 | 200 | 144 | 172 | 158 | –
C=CC(=O)Nc1ccc(CNc2nc(Nc3ccc(N4CCN(C)CC4)c(F)c3)ncc2Cl)cc1 [Compound 16] | 17.8 nM | 2.79 | 538 | 284 | 379 | 453 | –
C=CC(=O)Nc1cccc(CNc2cc(Nc3ccc(N4CCN(C)CC4)cc3OC)ncn2)c1 [Compound 25] | 246 nM | 15.3 | 2300 | 1530 | 2880 | 4550 | –
C=CC(=O)Nc1ccc(CNc2cc(Nc3ccc(N4CCN(C)CC4)cc3)ncn2)cc1 [Compound 32] | – | – | – | – | – | 22400 | –
C=CC(=O)Nc1ccc(CN2C(=O)NCc3cnc(Nc4ccc(N5CCN(C)CC5)cc4)nc32)cc1 [Compound 34] | 576 nM | 1.21 | 30100 | 29500 | > 10000 | 29200 | –
C=CC(=O)Nc1ccc(CN2C(=O)N(C)Cc3cnc(Nc4ccc(N5CCN(C)CC5)cc4)nc32)cc1 [Compound 35] | 880 nM | 30.4 | 14600 | 10100 | 87600 | 8840 | –
C=CC(=O)Nc1cccc(CNc2cc(Nc3cnn(C)c3)ncn2)c1 [Compound 38] | – | – | – | 78000 | – | – | –
C=CC(=O)Nc1cccc(CN2C(=O)N(C)Cc3cnc(Nc4cnn(C)c4)nc32)c1 [Compound 43] | 400 nM | 20.9 | > 50000 | 50100 | 14000 | > 50000 | –
C=CC(=O)Nc1cccc(CNc2nc(Nc3cc(Cl)c(C4CCOCC4)c(Cl)c3)ncc2Cl)c1 [Compound 45] | – | 100 | – | – | – | – | –
C=CC(=O)Nc1cccc(CN2CCc3cnc(Nc4cnn(C)c4)nc32)c1 [Compound 48] | > 50000 nM | 8040 | 18100 | 8850 | 56400 | > 50000 | –
C=CC(=O)Nc1cccc(CNc2nc(Nc3cc(F)c(C4CCOCC4)c(F)c3)ncc2Cl)c1 [Compound 50] | 100 nM | 20.5 | > 50000 | > 50000 | > 50000 | > 50000 | –
C=CC(=O)Nc1cccc(CNc2nc(Nc3cc(OC)c(N4CCN(C)CC4)cc3OC)ncc2Cl)c1 [Compound 57] | – | 170 | – | – | – | – | –
C=CC(=O)Nc1cccc(CNc2nc(Nc3ccc(N4CCN(C)CC4)cc3OC)ncc2C2CC2)c1 [Compound 91] | – | 220 | – | – | – | – | –
C=CC(=O)Nc1cccc(CNc2nc(Nc3cnn(CCOCCOCCOCCNC(=O)CCCC[C@@H]4SC[C@@H]5NC(=O)N[C@@H]54)c3)ncc2Cl)c1 [Compound 93] | – | – | > 50000 | 15400 | 18700 | > 50000 | –
